Where “and” joins values, the source holds several entries; their conditions need not be identical. Equal entries are not always repeated.

For this experiment, the target named is T1, human kinase Mps-1 (Homo sapiens, UniProt P33981).
T1 construct: N-terminally GST-tagged human full length recombinant Mps-1 kinase; GST (N); purchased Invitrogen, Karslruhe, Germany PV4071
T1 sequence (P33981 1-857): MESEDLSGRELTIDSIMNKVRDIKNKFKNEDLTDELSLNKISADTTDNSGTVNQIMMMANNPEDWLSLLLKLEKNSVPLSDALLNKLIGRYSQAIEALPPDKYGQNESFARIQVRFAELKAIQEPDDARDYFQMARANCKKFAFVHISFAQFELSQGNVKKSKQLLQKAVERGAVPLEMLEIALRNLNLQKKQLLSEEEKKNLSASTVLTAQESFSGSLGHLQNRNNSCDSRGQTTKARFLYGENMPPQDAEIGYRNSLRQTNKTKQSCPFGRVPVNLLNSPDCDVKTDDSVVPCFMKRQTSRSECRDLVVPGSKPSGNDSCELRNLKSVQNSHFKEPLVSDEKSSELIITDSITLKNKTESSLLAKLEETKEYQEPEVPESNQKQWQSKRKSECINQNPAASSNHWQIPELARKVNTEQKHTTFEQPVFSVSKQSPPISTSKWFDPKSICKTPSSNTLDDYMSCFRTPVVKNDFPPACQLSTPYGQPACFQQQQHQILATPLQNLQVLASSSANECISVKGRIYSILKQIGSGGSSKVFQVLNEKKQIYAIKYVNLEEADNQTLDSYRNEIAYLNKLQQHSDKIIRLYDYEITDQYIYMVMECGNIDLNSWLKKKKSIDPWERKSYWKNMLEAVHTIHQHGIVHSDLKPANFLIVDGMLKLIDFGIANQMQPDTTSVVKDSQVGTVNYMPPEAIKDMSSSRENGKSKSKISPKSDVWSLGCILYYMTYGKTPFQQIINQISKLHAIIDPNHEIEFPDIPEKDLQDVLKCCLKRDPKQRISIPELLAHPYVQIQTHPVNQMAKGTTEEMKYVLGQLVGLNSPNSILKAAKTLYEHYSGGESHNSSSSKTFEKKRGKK
As to the kind of experiment: Mps-1 kinase assay (TR-FRET). The conditions noted are these: Mps-1 TR-FRET kinase assay; avg; read-out: Mps1 avg (IC50 [mol/l]). It counts as biochemical. Put shortly: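 Inhibition normalised between uninhibited reaction (0%) and enzyme-free wells (100%), using the blank-corrected TR-FRET 665/620 nm ratio after EDTA stop. Reaction: ~0.5 nM GST-Mps-1 full length, 10 μM ATP, 1 μM biotin-peptide, 60 min at 22 °C, after 15 min compound pre-binding, pH 7.7.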
With `Cc1nsc(Nc2cnc(C(F)(F)F)cn2)c1C(=O)Nc1ccc(OC2CCN(C)CC2)nc1` [Example 220, 3-methyl-N-{6-[(1-methylpiperidin-4-yl)oxy]pyridin-3-yl}-5-{[5-(trifluoromethyl)pyrazin-2-yl]amino}-1,2-thiazole-4-carboxamide], the IC50 is more than 20 µM.

Take `Cc1nsc(Nc2cnc3ccccc3n2)c1C(=O)Nc1ccc(NCCC(=O)OC(C)(C)C)nc1` [Example 236, tert-butyl N-[5-({[3-methyl-5-(quinoxalin-2-ylamino)-1,2-thiazol-4-yl]carbonyl}amino)pyridin-2-yl]-beta-alaninate]: the IC50 is > 20 µM and 14 µM.

Regarding `CNS(=O)(=O)c1ccc(NC(=O)c2c(C)nsc2Nc2cnc(C(F)(F)F)cn2)cc1` [Example 212, 3-methyl-N-[4-(methylsulfamoyl)phenyl]-5-{[5-(trifluoromethyl)pyrazin-2-yl]amino}-1,2-thiazole-4-carboxamide], the IC50 is more than 20 µM. The value for `Cc1nsc(Nc2cnc3ccccc3n2)c1C(=O)Nc1cccc(NC(=O)C(C)(C)C)c1` [Example 186, N-{3-[(2,2-dimethylpropanoyl)amino]phenyl}-3-methyl-5-(quinoxalin-2-ylamino)-1,2-thiazole-4-carboxamide] was more than 20 µM; that for `Cc1nsc(Nc2cnc3ccccc3n2)c1C(=O)Nc1ccc(NC2CCCN(C(=O)OC(C)(C)C)C2)nc1` (stereo not drawn) [Example 241, tert-butyl 3-{[5-({[3-methyl-5-(quinoxalin-2-ylamino)-1,2-thiazol-4-yl]carbonyl}amino)pyridin-2-yl]amino}piperidine-1-carboxylate] was more than 20 µM.

In the case of `Cc1nsc(Nc2ccc(C#N)cn2)c1C(=O)Nc1cccc(N)c1` [Example 180, N-(3-aminophenyl)-5-[(5-cyanopyridin-2-yl)amino]-3-methyl-1,2-thiazole-4-carboxamide], the IC50 was more than 20 µM. As for `Cc1nsc(Nc2cncc(C(F)(F)F)n2)c1C(=O)Nc1ccc(OC2CCN(C(C)C)CC2)nc1` [Example 218, N-{6-[(1-isopropylpiperidin-4-yl)oxy]pyridin-3-yl}-3-methyl-5-{[6-(trifluoromethyl)pyrazin-2-yl]amino}-1,2-thiazole-4-carboxamide], the IC50 was more than 20 µM. For `CNS(=O)(=O)c1ccc(NC(=O)c2c(C)nsc2Nc2cc(C#N)ccn2)cc1` [Example 210, 5-[(4-cyanopyridin-2-yl)amino]-3-methyl-N-[4-(methylsulfamoyl)phenyl]-1,2-thiazole-4-carboxamide] the value was more than 20 µM. For the compound `COC(=O)CCc1cccc(NC(=O)c2c(C)nsc2Nc2ccc(C#N)cn2)c1` [Example 176, methyl 3-{3-[({5-[(5-cyanopyridin-2-yl)amino]-3-methyl-1,2-thiazol-4-yl}carbonyl)amino]phenyl}propanoate], the IC50 was more than 20 µM. As for `CCN(CC)CCNC(=O)c1cccc(NC(=O)c2c(C)nsc2Nc2cc(C#N)ccn2)c1` [Example 174, 5-[(4-cyanopyridin-2-yl)amino]-N-(3-{[2-(diethylamino)ethyl]carbamoyl}phenyl)-3-methyl-1,2-thiazole-4-carboxamide], the IC50 was more than 20 µM. `Cc1nsc(Nc2cncc(C(F)(F)F)n2)c1C(=O)Nc1ccc(OC2CCN(CC(F)F)CC2)c(F)c1` [Example 224, N-(4-{[1-(2,2-difluoroethyl)piperidin-4-yl]oxy}-3-fluorophenyl)-3-methyl-5-{[6-(trifluoromethyl)pyrazin-2-yl]amino}-1,2-thiazole-4-carboxamide]: the IC50 is more than 20 µM. For `Cc1nsc(Nc2cnc3ccccc3n2)c1C(=O)Nc1ccc(NC(=O)C(C)(C)C)cc1` [Example 185, N-{4-[(2,2-dimethylpropanoyl)amino]phenyl}-3-methyl-5-(quinoxalin-2-ylamino)-1,2-thiazole-4-carboxamide] the value was more than 20 µM. For `Cc1nsc(Nc2cnc(C(F)(F)F)cn2)c1C(=O)Nc1ccc(F)c(OC2CCN(C(=O)OC(C)(C)C)CC2)c1` [Example 229, tert-butyl 4-(2-fluoro-5-{[(3-methyl-5-{[5-(trifluoromethyl)pyrazin-2-yl]amino}-1,2-thiazol-4-yl)carbonyl]amino}phenoxy)piperidine-1-carboxylate], the IC50 was more than 20 µM. On to `Cc1nsc(Nc2cnc(C(F)(F)F)cn2)c1C(=O)Nc1ccc(OCCN)c(F)c1` [Example 221, 3-N-[4-(2-aminoethoxy)-3-fluorophenyl]-3-methyl-5-{[5-(trifluoromethyl)pyrazin-2-yl]amino}-1,2-thiazole-4-carboxamide], for which the IC50 was more than 20 µM.

Consider `Cc1nsc(Nc2cc(C#N)ccn2)c1C(=O)Nc1ccc(C(=O)OC(C)(C)C)cc1` [Example 182, tert-butyl 4-[({5-[(4-cyanopyridin-2-yl)amino]-3-methyl-1,2-thiazol-4-yl}carbonyl)amino]benzoate], for which the IC50 was more than 20 µM. With `Cc1nsc(Nc2cncc(C(F)(F)F)n2)c1C(=O)Nc1ccc(OCCN)nc1` [Example 196, N-[6-(2-aminoethoxy)pyridin-3-yl]-3-methyl-5-{[6-(trifluoromethyl)pyrazin-2-yl]amino}-1,2-thiazole-4-carboxamide], the IC50 is more than 20 µM. As for `Cc1nsc(Nc2cc(C#N)ccn2)c1C(=O)Nc1ccc(OCCC(=O)OC(C)(C)C)nc1` [Example 200, tert-butyl 3-({5-[({5-[(4-cyanopyridin-2-yl)amino]-3-methyl-1,2-thiazol-4-yl}carbonyl)amino]pyridin-2-yl}oxy)propanoate], the IC50 was more than 20 µM.

With `Cc1nsc(Nc2cncc(C(F)(F)F)n2)c1C(=O)Nc1ccc(C(=O)OC(C)(C)C)cc1` [Example 193, tert-butyl tert-butyl 4-{[(3-methyl-5-{[6-(trifluoromethyl)pyrazin-2-yl]amino}-1,2-thiazol-4-yl)carbonyl]amino}benzoate], the IC50 was more than 20 µM.

For `Cc1nsc(Nc2cc(C#N)ccn2)c1C(=O)Nc1ccc(NC2CCCNC2)nc1` (stereo not drawn) [Example 242, 5-[(4-cyanopyridin-2-yl)amino]-3-methyl-N-[6-(piperidin-3-ylamino)pyridin-3-yl]-1,2-thiazole-4-carboxamide], the IC50 was more than 20 µM. For `Cc1nsc(Nc2cnc3ccccc3n2)c1C(=O)Nc1ccc(Nc2ccc(F)c(F)c2)nc1` [Example 245, N-{6-[(3,4-difluorophenyl)amino]pyridin-3-yl}-3-methyl-5-(quinoxalin-2-ylamino)-1,2-thiazole-4-carboxamide] the value was > 20 µM and 19 µM; for `Cc1nsc(Nc2cncc(C(F)(F)F)n2)c1C(=O)Nc1ccc(C(=O)NCCN2CCCC(F)(F)C2)cc1` [Example 214, N-(4-{[2-(3,3-difluoropiperidin-1-yl)ethyl]carbamoyl}phenyl)-3-methyl-5-{[6-(trifluoromethyl)pyrazin-2-yl]amino}-1,2-thiazole-4-carboxamide], more than 20 µM.

Take `Cc1nsc(Nc2cncc(C(F)(F)F)n2)c1C(=O)Nc1ccc(OC2CCN(CCF)CC2)nc1` [Example 14, N-(6-{[1-(2-Fluoroethyl)piperidin-4-yl]oxy}pyridin-3-yl)-3-methyl-5-{[6-(trifluoro-methyl)pyrazin-2-yl]amino}-1,2-thiazole-4-carboxamide]: the IC50 was not below 20 µM. The value for `Cc1nsc(Nc2cnc3ccccc3n2)c1C(=O)Nc1ccc(F)c(C(N)=O)c1` [Example 202, N-(3-carbamoyl-4-fluorophenyl)-3-methyl-5-(quinoxalin-2-ylamino)-1,2-thiazole-4-carboxamide] was 5.8 µM; that for `Cc1nsc(Nc2cnc(C(F)(F)F)cn2)c1C(=O)Nc1ccc(OCCN)nc1` [Example 197, N-[6-(2-aminoethoxy)pyridin-3-yl]-3-methyl-5-{[5-(trifluoromethyl)pyrazin-2-yl]amino}-1,2-thiazole-4-carboxamide] was more than 20 µM.

In the case of `Cc1nsc(Nc2cnc3ccccc3n2)c1C(=O)Nc1ccc(OC2CCN(C(=O)OC(C)(C)C)CC2)nc1` [Example 18, tert-Butyl 4-{[5-({[3-methyl-5-(quinoxalin-2-ylamino)-1,2-thiazol-4-yl]carbonyl}-amino)pyridin-2-yl]oxy}piperidine-1-carboxylate], the IC50 was not below 20 µM.

As to `Cc1nsc(Nc2cncc(C(F)(F)F)n2)c1C(=O)Nc1cccc(S(C)(=O)=O)c1` [Example 194, 3-methyl-N-[3-(methylsulfonyl)phenyl]-5-{[6-(trifluoromethyl)pyrazin-2-yl]amino}-1,2-thiazole-4-carboxamide], the IC50 was more than 10 µM. For `Cc1nsc(Nc2cc(C#N)ccn2)c1C(=O)Nc1ccc(NC(=O)OC(C)(C)C)cc1` [Example 177, tert-butyl {4-[({5-[(4-cyanopyridin-2-yl)amino]-3-methyl-1,2-thiazol-4-yl}carbonyl)amino]phenyl}carbamate] the value was more than 20 µM.
